{"source": "patent US20220096641A1", "about": "“PYRROLOBENZODIAZEPINE DIMER COMPOUND WITH IMPROVED SAFETY AND USE THEREOF” (priority 2019, published 2022)", "key": {"[1]": {"system": "Co-culture SK-BR3:MDA-MB-468 = 1:1", "experiment": "Bystander effect experiment, co-culture", "conditions": "for viability at 0.001 µM: Homo sapiens, 144 h, read-out: Cell viability (%) Co-culture (SK-BR3:MDA-MB-468 = 1:1); for Cell viability (%) Co-culture (SK-BR3:MDA-MB-468 = 1:1): single concentration of 1 nM, 144 hours, SRB", "experimental": "(§1) The cell proliferation inhibitory activity of the drugs and ADC presented in Table 4 below on cancer cell lines was measured. The SK-BR3 human breast cancer cell line (procured from Korea Cell Line Bank (KCLB)) was used as a HER2-positive cell line, and the MDA-MB-468 human triple-negative breast cancer cell line (procured from ATCC) was used as a HER2-negative cell line. […] All ADCs used in the experiment were anti-HER2 ADCs. In a 96-well plate, 6,000 SK-BR3, 6,000 MDA-MB-468, or 3,000 SK-BR3 and 3,000 MDA-MB-468 per well were seeded together, cultured for 24 hours, and then treated with each drug and ADC at a single concentration of 1 nM. After 144 hours, the number of viable cells was quantified using SRB (Sulforhodamine B) dye."}, "[2]": {"system": "MCF-7 (HER2 negative to normal)", "experiment": "In vitro cytotoxicity (cell proliferation inhibition, SRB), MCF-7", "assay_type": "cell-based", "conditions": "Homo sapiens", "experimental": "(§2) The cell proliferation inhibitory activity of the drugs and ADCs presented in Tables 2 and 3 below on cancer cell lines was measured. As the cancer cell lines, commercially available human breast cancer cell lines MCF-7 (HER2 negative to normal), SK-BR3 (HER2 positive), and JIMT-1 (HER2 positive) were used. […] In a 96-well plate, 5,000 SK-BR3, 5,000 MCF-7, and 2,500 JIMT-1 per well were seeded, cultured for 24 hours, and then treated with ADCs at a concentration of 25 fM to 10 nM (5-fold serial dilutions) and drugs at a concentration of 25 fM to 10 nM (5-fold serial dilutions) or 1 fM to 100 nM (10-fold serial dilutions)."}, "[3]": {"system": "SK-BR3 (HER2 positive)", "experiment": "In vitro cytotoxicity (cell proliferation inhibition, SRB), SK-BR3", "assay_type": "cell-based", "conditions": "Homo sapiens", "experimental": "as §2"}, "[4]": {"system": "SK-BR3 human breast cancer cell line (HER2-positive)", "experiment": "Bystander effect experiment, SK-BR3 alone", "conditions": "for viability at 0.001 µM: Homo sapiens, SK-BR-3, 144 h, read-out: Cell viability (%) SK-BR3; for Cell viability (%) SK-BR3: single concentration of 1 nM, 144 hours, SRB", "experimental": "as §1"}, "[5]": {"experiment": "Rat pre-tox experiment (single dose toxicity)", "assay_type": "in vivo, SD rats", "conditions": "single tail vein dose; for inhibition of weight gain: SG2057 statement for 0.02 mg/kg and 0.04 mg/kg groups", "experimental": "Twenty one 8-week-old male SD rats were divided into 7 groups of 3 rats each, the test material was administered thereto through the tail vein at 2 mL/kg one time, and the weight/death/clinical symptoms and the like thereof were observed. The body weight was measured two times a week, and death and clinical symptoms were observed daily. Four weeks after administration, planned slaughter was performed to examine the gross findings of organs. The results are as illustrated in FIG. 3."}, "[6]": {"system": "MDA-MB-468 human triple-negative breast cancer cell line (HER2-negative)", "experiment": "Bystander effect experiment, MDA-MB-468 alone", "conditions": "for viability at 0.001 µM: Homo sapiens, MDA-MB-468, 144 h, read-out: Cell viability (%) MDA-MB-468; for Cell viability (%) MDA-MB-468: single concentration of 1 nM, 144 hours, SRB", "experimental": "as §1"}, "[7]": {"system": "JIMT-1 (HER2 positive)", "experiment": "In vitro cytotoxicity (cell proliferation inhibition, SRB), JIMT-1", "assay_type": "cell-based", "conditions": "Homo sapiens", "experimental": "as §2"}, "[8]": {"system": "Co-culture SK-BR3:MDA-MB-468 = 1:1", "conditions": "free toxin control materials; cited from earlier work"}, "[9]": {"conditions": "first of three dose groups (dose not given)"}, "[10]": {"conditions": "second of three dose groups (apparently 0.02 mg/kg)"}, "[11]": {"conditions": "third of three dose groups (apparently 0.04 mg/kg)"}, "[12]": {"conditions": "MCF7, 144 h, read-out: IC50 (nM) MCF7, pyrrolobenzodiazepine derivatives (free drugs), 144 hours, SRB"}, "[13]": {"conditions": "SK-BR-3, 144 h, read-out: IC50 (nM) SK-BR3, pyrrolobenzodiazepine derivatives (free drugs), 144 hours, SRB"}, "[14]": {"conditions": "JIMT-1, 144 h, read-out: IC50 (nM) JIMT-1, pyrrolobenzodiazepine derivatives (free drugs), 144 hours, SRB"}}, "note": "Read-outs that look alike come from different tables or passages of the source. Square brackets hold non-standard residues; d marks the D form. Peptide text beside a SMILES is read from it. * marks the point of attachment. Dolaproine = CO[C@@H]([C@@H]1CCCN1)[C@@H](C)C(=O)O; Dil = CC[C@H](C)[C@H](NC)[C@@H](CC(=O)O)OC; X1 = C[C@@H](N*)[C@@H](O)c1ccccc1; NMeV = CN[C@H](C(=O)O)C(C)C", "data": [{"smiles": "C=C1CC2CNc3cc(OCc4cc(COc5cc6c(cc5OC)C(=O)N5CC(=C)C[C@H]5CN6)cc(OCCOCCOCCOCC(=O)O)c4)c(OC)cc3C(=O)N2C1", "note": "(some centres unmarked) [Compound 32]", "values": [{"measurement": "viability at 0.001 µM", "setting": "[1]", "result": 98, "unit": "%"}, {"measurement": "bystander effect", "setting": "[1]; conclusion from mono- and co-culture viability at 1 nM", "result": "do not exhibit a bystander effect"}, {"measurement": "IC50", "setting": "[2]; MCF7, pyrrolobenzodiazepine derivatives (free drugs), 144 hours, SRB, read-out: IC50 (nM) MCF7", "result": "> 100", "unit": "nM"}, {"measurement": "IC50", "setting": "[3]; SK-BR-3, pyrrolobenzodiazepine derivatives (free drugs), 144 hours, SRB, read-out: IC50 (nM) SK-BR3", "result": 18.2, "unit": "nM"}, {"measurement": "viability at 0.001 µM", "setting": "[4]", "result": 98, "unit": "%"}, {"measurement": "body weight at end of 4th week as compared to body weight at time of administration", "setting": "[5]; [9]", "result": 171, "unit": "%"}, {"measurement": "body weight at end of 4th week as compared to body weight at time of administration", "setting": "[5]; [10]", "result": 164, "unit": "%"}, {"measurement": "inhibition of weight gain", "setting": "[5]", "result": "very insignificant"}, {"measurement": "body weight at end of 4th week as compared to body weight at time of administration", "setting": "[5]; [11]", "result": 161, "unit": "%"}, {"measurement": "viability at 0.001 µM", "setting": "[6]", "result": 101, "unit": "%"}, {"measurement": "IC50", "setting": "[7]; JIMT-1, pyrrolobenzodiazepine derivatives (free drugs), 144 hours, SRB, read-out: IC50 (nM) JIMT-1", "result": "> 100", "unit": "nM"}]}, {"smiles": "C=C1C[C@H]2C=Nc3cc(OCc4cc(COc5cc6c(cc5OC)C(=O)N5CC(=C)C[C@H]5C=N6)cc(OCCOCCOCCOCC(=O)OC)c4)c(OC)cc3C(=O)N2C1", "note": "[Compound 33]", "values": [{"measurement": "IC50", "setting": "[2]; [12]", "result": "> 100", "unit": "nM"}, {"measurement": "IC50", "setting": "[3]; [13]", "result": "> 100", "unit": "nM"}, {"measurement": "IC50", "setting": "[7]; [14]", "result": "> 100", "unit": "nM"}]}, {"smiles": "C=C1C[C@H]2C=Nc3cc(OCc4cc(COc5cc6c(cc5OC)C(=O)N5CC(=C)C[C@H]5C=N6)cc(OCCOCCOCCOCC(=O)NC(CC(=O)O)CC(=O)O)c4)c(OC)cc3C(=O)N2C1", "note": "[Compound 52]", "values": [{"measurement": "IC50", "setting": "[2]; [12]", "result": "> 100", "unit": "nM"}, {"measurement": "IC50", "setting": "[3]; [13]", "result": "> 100", "unit": "nM"}, {"measurement": "IC50", "setting": "[7]; [14]", "result": "> 100", "unit": "nM"}]}, {"smiles": "C=C1C[C@H]2C=Nc3cc(OCc4cc(COc5cc6c(cc5OC)C(=O)N5CC(=C)C[C@H]5C=N6)cc(OCCOCCOCCOCC(=O)NC(CC(=O)OC)CC(=O)OC)c4)c(OC)cc3C(=O)N2C1", "note": "[Compound 53]", "values": [{"measurement": "IC50", "setting": "[2]; [12]", "result": 11.8, "unit": "nM"}, {"measurement": "IC50", "setting": "[3]; [13]", "result": 2.52, "unit": "nM"}, {"measurement": "IC50", "setting": "[7]; [14]", "result": 8.93, "unit": "nM"}]}, {"smiles": "CC[C@H](C)[C@@H]([C@@H](CC(=O)N1CCC[C@H]1[C@H](OC)[C@@H](C)C(=O)N[C@H](C)[C@@H](O)c1ccccc1)OC)N(C)C(=O)[C@@H](NC(=O)[C@@H](NC)C(C)C)C(C)C", "note": "[MMAE] (H-[NMeV]V[Dil][Dolaproine]-X1)", "values": [{"measurement": "bystander effect (already known)", "setting": "[8]", "result": "known to exhibit a bystander effect"}, {"measurement": "Cell viability (%) Co-culture (SK-BR3:MDA-MB-468 = 1:1)", "setting": "[1]", "result": 12, "unit": "%"}, {"measurement": "Cell viability (%) SK-BR3", "setting": "[4]", "result": 12, "unit": "%"}, {"measurement": "Cell viability (%) MDA-MB-468", "setting": "[6]", "result": 14, "unit": "%"}]}, {"smiles": "CC[C@H](C)[C@@H]([C@@H](CC(=O)N1CCC[C@H]1[C@H](OC)[C@@H](C)C(=O)N[C@@H](Cc1ccccc1)C(=O)O)OC)N(C)C(=O)[C@@H](NC(=O)[C@@H](NC)C(C)C)C(C)C", "note": "[MMAF] (H-[NMeV]V[Dil][Dolaproine]F-OH)", "values": [{"measurement": "bystander effect (already known)", "setting": "[8]", "result": "known to exhibit no bystander effect"}, {"measurement": "Cell viability (%) Co-culture (SK-BR3:MDA-MB-468 = 1:1)", "setting": "[1]", "result": 99, "unit": "%"}, {"measurement": "Cell viability (%) SK-BR3", "setting": "[4]", "result": 101, "unit": "%"}, {"measurement": "Cell viability (%) MDA-MB-468", "setting": "[6]", "result": 105, "unit": "%"}]}, {"smiles": "C=C1C[C@H]2C=Nc3cc(OCCCCCOc4cc5c(cc4OC)C(=O)N4CC(=C)C[C@H]4C=N5)c(OC)cc3C(=O)N2C1", "note": "[SG2057]", "values": [{"measurement": "viability at 0.001 µM", "setting": "[1]", "result": 6, "unit": "%"}, {"measurement": "IC50", "setting": "[2]; MCF7, 144 h, read-out: IC50 (nM) MCF7, comparison of anti-HER2 ADCs, 144 hours, SRB", "result": 0.06, "unit": "nM"}, {"measurement": "IC50", "setting": "[2]; [12]", "result": 0.05, "unit": "nM"}, {"measurement": "IC50", "setting": "[3]; SK-BR-3, 144 h, read-out: IC50 (nM) SK-BR3, comparison of anti-HER2 ADCs, 144 hours, SRB", "result": 0.02, "unit": "nM"}, {"measurement": "IC50", "setting": "[3]; [13]", "result": 0.01, "unit": "nM"}, {"measurement": "viability at 0.001 µM", "setting": "[4]", "result": 7, "unit": "%"}, {"measurement": "body weight at end of 4th week as compared to body weight at time of administration", "setting": "[5]; [9]", "result": 167, "unit": "%"}, {"measurement": "body weight at end of 4th week as compared to body weight at time of administration", "setting": "[5]; [10]", "result": 148, "unit": "%"}, {"measurement": "inhibition of weight gain", "setting": "[5]", "result": "significantly inhibited weight gain"}, {"measurement": "body weight at end of 4th week as compared to body weight at time of administration", "setting": "[5]; [11]", "result": 115, "unit": "%"}, {"measurement": "viability at 0.001 µM", "setting": "[6]", "result": 4, "unit": "%"}, {"measurement": "IC50", "setting": "[7]; JIMT-1, 144 h, read-out: IC50 (nM) JIMT-1, comparison of anti-HER2 ADCs, 144 hours, SRB", "result": 0.05, "unit": "nM"}, {"measurement": "IC50", "setting": "[7]; [14]", "result": 0.04, "unit": "nM"}]}]}
